Experimental data published in patent US20240124483A1, “Methods for the Treatment of Fibrotic Disease” (SHY Therapeutics, LLC, priority 2021, published 2024).
Where two headings read alike, the source gives them in different places.

Key:
KRas G12C mutant = KRas G12C mutant (Homo sapiens (Human), UniProt P01116, G12C); assay: Ras GTP Binding Domain Inhibition Assay, KRas G12C mutant
Description: (§1) A Ras Superfamily Activity Assay (as disclosed in International Application No. PCT/US2018/038613, filed Jun. 20, 2018, which is incorporated by reference in its entirety) was used as a specific assay to evaluate compounds against the following for the following Ras Superfamily proteins: KRas wild type, KRas Q61H mutant, KRas G12C mutant, KRas G12D mutant, Rac-1, and Rho-A.
(§2) Buffer-I: • 25 mM Tris-HCl, pH 7.4 • 27 mM KCl • 137 mM NaCl • 1 mM MgCl2 • 1 mM DTT
(§3) Buffer-II: • 50 mM Tris-HCl, pH 7.0 • 1 mM MgCl2 • 1 mM DTT
(§4) The small GTPases proteins: KRas wild type. KRas Q61H mutant, KRas G12C mutant, KRas G12D mutants, Rac-1, and Rho-A were expressed as His-tagged proteins. In addition, the Guanosine nucleotide Exchange Factor (GEF) Sos protein (residues 556-1049) was expressed as a His-tagged protein. In cells, the guanine nucleotide exchange factor Sos protein promotes activation of Ras proteins by stimulating an exchange of GDP for GTP. The inclusion of Sos to the Ras GTP binding domain inhibition assay may be considered as an alternative representation of physiological cellular conditions for evaluating the inhibitory activity of some of the tested small molecules.
(§5) For the assay, all purified small GTPases proteins were diluted in Buffer-I or Buffer-II to a final concentration of 10-30 μg/mL. 200 μL of each diluted protein was added to a nickel-coated 96-well plate and incubated overnight at 4° C. Then the protein solution was discarded and 200 μL of Buffer-I or Buffer-II was added to each well in the presence of 1% DMSO. Compounds to be tested were added to the protein-coated wells at final concentration of 20 μM, and incubated for 3 hours at room temperature with and without 10-30 μg/mL of Sos added to the final hour of the incubation. When performing IC50 measurements a serial dilution of all tested concentrations was added. Then Cy3-GTP or Cy5-GTP was added to each well to a final concentration of 100 nM. The labeled GTP was incubated for 45 minutes at room temperature. Following GTP incubation, wells were washed 3× in Buffer-I or Buffer-II and 200 μL of Buffer-I or Buffer-II was added to each well. Following washes, the amount of bound labeled-GTP was measured using a SpectraMax M3 (Molecular Devices).

Rho-A = Rho-A (Homo sapiens (Human), UniProt P61586); assay: Ras GTP Binding Domain Inhibition Assay, Rho-A
Description: as §1, §2, §3, §4, §5

JNK = JNK Activation Assay in Panc-1 (western blot); type: cell-based, Human; design: key: Y = yes; N = No; settings: at 10 μM
Description: Cell lines: Human tumor-derived pancreatic cancer cell line Panc-1 and mouse muscle myoblast C2C12 were purchased from American Type Culture Collection and grown in complete DMEM-High Glucose, supplemented with penicillin (100 U/mL), streptomycin (100 μg/mL), and 10% heat-inactivated FBS at 37° C. in a humidified incubator with 5% CO2.
Method: Cells were plated at 350000 cells/well density in a 12-well plate, allowed 3 hours to adhere to the plate, then starved in the appropriate medium in the presence of 0.5% FBS overnight. The small molecules to be tested were added to the cells in the final concentration of 10 μM in the presence of 0.3% DMSO for 3 hours incubation at 37° C. For IC50 value determination, serial dilutions of compounds were added to cells under the same conditions. Next, Panc-1 cells were stimulated with 10 ng/ml TGF-b1 for 1 hour, and C2C12 cells were stimulated with 10 ng/ml TGF-b1 for 20 minutes (recombinant human TGF-b1, R&D Systems). After stimulation cells were lysed with lysis buffer containing 1% Triton X-100, EDTA, and Halt™ Protease & Phosphatase Inhibitor Cocktail (Thermo Scientific). Protein concentration was assessed by BCA protein assay (Thermo Scientific). Phosphorylation level of JNK was determined by western blot.
Western blot protocol: Equal amounts of protein (15-50 μg) were separated by SDS-PAGE and transferred to nitrocellulose membranes (Invitrogen by Thermo Fisher Scientific). The membrane was stained with Ponceau S Stain (Boston BioProducts) to verify uniform protein loading. Membranes were blocked with 10% milk and phosphorylation levels of Smad2, Smad3, INK and p38 were assessed by incubating overnight at 4° C. with the following antibody: Phospho-SAPK/JNK (Thr183/Tyr185), from Cell Signaling Technology. Then the membranes were incubated with HRP-conjugated secondary antibody (Jackson Immunoresearch, West Grove, PA). Bands were incubated in Amersham ECL Prime Western Blotting Detection Reagent (GE Healthcare) and visualized using the ChemiDoc MP imaging system (Bio-Rad).

KRas G12D mutant = KRas G12D mutant (Homo sapiens (Human), UniProt P01116, G12D); assay: Ras GTP Binding Domain Inhibition Assay, KRas G12D mutant; settings: for inhibition at 20 µM: Table 7; for KRas G12D mutant: % inh. / KRas G12D mutant + SOS: % inh.: 20 uM, Table 8
Description: as §1, §2, §3, §4, §5

KRas wild type = KRas wild type (Homo sapiens (Human), UniProt P01116); assay: Ras GTP Binding Domain Inhibition Assay, KRas wild type
Description: as §1, §2, §3, §4, §5

[1] = without SOS, read-out: KRas G12C mutant: % inh.
[2] = without SOS, read-out: Rho-A: % inh.
[3] = without SOS, read-out: KRas G12D mutant: % inh.
[4] = without SOS, read-out: KRas wild type: % inh.
[5] = + SOS, read-out: KRas G12D mutant + SOS: % inh.
[6] = + SOS, read-out: KRas wild type + SOS: % inh.
[7] = + SOS, read-out: KRas G12C mutant + SOS: % inh.
[8] = + SOS, read-out: Rho-A + SOS: % inh.

Chain of KRas wild type (P01116 other isoform, or with tags, fused parts or gaps): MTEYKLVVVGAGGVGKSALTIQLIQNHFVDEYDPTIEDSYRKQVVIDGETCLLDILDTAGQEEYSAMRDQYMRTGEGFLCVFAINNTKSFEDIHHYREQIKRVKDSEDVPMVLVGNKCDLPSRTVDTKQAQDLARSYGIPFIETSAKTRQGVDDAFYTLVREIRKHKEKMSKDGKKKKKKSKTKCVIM
Chain of KRas G12D mutant (P01116 other isoform, or with tags, fused parts or gaps G12D): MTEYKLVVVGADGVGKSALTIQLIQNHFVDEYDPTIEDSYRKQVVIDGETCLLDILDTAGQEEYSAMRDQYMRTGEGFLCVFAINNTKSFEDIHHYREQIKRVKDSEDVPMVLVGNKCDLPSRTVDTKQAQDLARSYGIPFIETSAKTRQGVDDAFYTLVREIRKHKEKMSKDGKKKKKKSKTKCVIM
Chain of Rho-A (P61586 whole entry, species assumed, the tested form may be a part): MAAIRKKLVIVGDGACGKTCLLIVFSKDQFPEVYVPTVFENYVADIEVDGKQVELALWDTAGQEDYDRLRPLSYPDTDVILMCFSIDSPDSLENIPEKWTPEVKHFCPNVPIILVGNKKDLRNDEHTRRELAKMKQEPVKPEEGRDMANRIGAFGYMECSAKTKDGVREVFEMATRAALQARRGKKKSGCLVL
Chain of KRas G12C mutant (P01116 other isoform, or with tags, fused parts or gaps G12C): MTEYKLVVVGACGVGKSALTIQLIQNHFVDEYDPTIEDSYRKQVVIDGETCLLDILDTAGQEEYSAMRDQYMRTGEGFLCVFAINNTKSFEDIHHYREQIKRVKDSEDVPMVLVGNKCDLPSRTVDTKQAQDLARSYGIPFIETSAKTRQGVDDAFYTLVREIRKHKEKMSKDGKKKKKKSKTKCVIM

Row | SMILES | inhibition at 20 µM (KRas G12C mutant; [1]) [%] | inhibition at 20 µM (Rho-A; [2]) [%] | inhibition at 20 µM (KRas G12D mutant; [3]) [%] | KRas G12D mutant: % inh. (KRas G12D mutant; without SOS) | inhibition at 20 µM (KRas wild type; [4]) [%] | inhibition at 20 µM (KRas G12D mutant; [5]) [%] | KRas G12D mutant + SOS: % inh. (KRas G12D mutant; + SOS) | inhibition at 20 µM (KRas wild type; [6]) [%] | inhibition at 20 µM (KRas G12C mutant; [7]) [%] | inhibition at 20 µM (Rho-A; [8]) [%] | Activation of JNK in PANC-1 (JNK)
1 | COCCN(C)c1nc(-c2nccn2C)nc2sc(-c3ccccc3)c(-c3ccccc3)c12 [Compound 2, N-(2-Methoxyethyl)-N-methyl-2-(1-methyl-1H-imidazol-2-yl)-5,6-diphenylthieno[2,3-d]pyrimidin-4-amine] | 26 to 45 | 26 to 45 | 46 to 75 | C (C = 46-75% inhibition) | 46 to 75 |  |  |  |  |  | Y
2 | COCCCNc1nc(-c2nccn2C)nc2sc(-c3ccccc3)c(-c3ccccc3)c12 [Compound 3, N-(3-Methoxypropyl)-2-(1-methyl-1H-imidazol-2-yl)-5,6-diphenylthieno[2,3-d]pyrimidin-4-amine] | 46 to 75 | 46 to 75 | 46 to 75 | C (C = 46-75% inhibition) | 46 to 75 | 1 to 25 | A (A = 1-25% inhibition) | 1 to 25 |  |  | Y
3 | COC1CCN(c2nc(-c3nccn3C)nc3sc(-c4ccn(C)n4)c(-c4ccccc4)c23)CC1 [Compound 6, 4-(4-Methoxypiperidin-1-yl)-2-(1-methyl-1H-imidazol-2-yl)-6-(1-methyl-1H-pyrazol-3-yl)-5-phenylthieno[2,3-d]pyrimidine] | 26 to 45 | 0 | 26 to 45 | B (B = 26-45% inhibition) | 0 | 26 to 45 | B (B = 26-45% inhibition) | 26 to 45 | 46 to 75 | 0 | Y
4 | COCCNc1nc(-c2nccn2C)nc2sc(-c3cccc(OC)c3Cl)c(-c3ccc(OC)cc3)c12 [Compound 7, 6-(2-Chloro-3-methoxyphenyl)-N-(2-methoxyethyl)-5-(4-methoxyphenyl)-2-(1-methyl-1H-imidazol-2-yl)thieno[2,3-d]pyrimidin-4-amine] | 26 to 45 | 26 to 45 | 26 to 45 | B (B = 26-45% inhibition) | 46 to 75 | 26 to 45 | B (B = 26-45% inhibition) | 76 to 100 | 76 to 100 | 46 to 75 | Y

Continued, in another order:

Row | inhibition at 20 µM (KRas G12C mutant; [1]) [%] | inhibition at 20 µM (Rho-A; [2]) [%] | inhibition at 20 µM (KRas G12D mutant; [3]) [%] | KRas G12D mutant: % inh. (KRas G12D mutant; without SOS) | inhibition at 20 µM (KRas wild type; [4]) [%] | inhibition at 20 µM (KRas G12D mutant; [5]) [%] | KRas G12D mutant + SOS: % inh. (KRas G12D mutant; + SOS) | inhibition at 20 µM (KRas wild type; [6]) [%] | inhibition at 20 µM (KRas G12C mutant; [7]) [%] | inhibition at 20 µM (Rho-A; [8]) [%] | SMILES | Activation of JNK in PANC-1 (JNK)
5 | 26 to 45 | 26 to 45 | 26 to 45 | B (B = 26-45% inhibition) | 1 to 25 |  |  |  |  |  | COCCNc1nc(-c2nccn2C)nc2sc(-c3ccccc3)c(-c3ccccc3Cl)c12 [Compound 4, 5-(2-Chlorophenyl)-N-(2-methoxyethyl)-2-(1-methyl-1H-imidazol-2-yl)-6-phenylthieno[2,3-d]pyrimidin-4-amine] | Y
6 | 26 to 45 | 46 to 75 | 26 to 45 | B (B = 26-45% inhibition) | 46 to 75 | 26 to 45 | B (B = 26-45% inhibition) | 76 to 100 | 76 to 100 | 46 to 75 | COCCNc1nc(-c2cn(C)cn2)nc2sc(-c3cccc(OC)c3Cl)c(-c3ccc(OC)cc3)c12 [Compound 8, 6-(2-Chloro-3-methoxyphenyl)-N-(2-methoxyethyl)-5-(4-methoxyphenyl)-2-(1-methyl-1H-imidazol-4-yl)thieno[2,3-d]pyrimidin-4-amine] | Y
